{"source": "patent US11236129B2", "about": "“IL-17A binding peptides and medical uses thereof” (Dompe' Farmaceutici S.P.A., priority 2018, dated 2022)", "note": "Residues, ends and D or L forms follow the SMILES beside them."}
{"biological_target": "IL-17RA/IL17RC dimerization induced by IL-17A (Homo sapiens, UniProt Q16552)", "sequence (Q16552 24-155)": "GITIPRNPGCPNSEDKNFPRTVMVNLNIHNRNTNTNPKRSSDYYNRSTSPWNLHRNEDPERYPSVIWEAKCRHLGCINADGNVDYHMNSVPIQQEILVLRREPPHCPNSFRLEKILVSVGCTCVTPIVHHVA", "test": "IL-17RA/IL17RC dimerization assay in response to IL-17A (PathHunter Cytokine Receptor Assay)", "assay_type": "cell-based", "details": "IL-17A at EC80; read-out: IC50 in IL-17RA/IL7RC dimerization assay", "outline": "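Receptor dimerization was read as chemiluminescence from complemented β-galactosidase after IL-17A at EC80 concentration for 6–16 h at 37 °C. Peptides were added 60 min before agonist, at 37 °C or room temperature, with 1% vehicle. Percent inhibition used the EC80-stimulated and vehicle wells as references.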", "units": {"IC50": "µM"}}
{"smiles": "CC[C@H](C)[C@H](NC(C)=O)C(=O)N[C@@H](Cc1c[nH]cn1)C(=O)N[C@H](C(=O)N[C@H](C(=O)N[C@@H](Cc1ccccc1)C(=O)N1CCC[C@H]1C(=O)N[C@@H](C)C(=O)N[C@@H](CC(=O)O)C(=O)N[C@@H](CC(C)C)C(=O)N[C@@H](Cc1c[nH]c2ccccc12)C(=O)N[C@@H](CC(=O)O)C(=O)N[C@@H](Cc1c[nH]c2ccccc12)C(=O)N[C@H](C(=O)N[C@@H](CC(N)=O)C(=O)N[C@@H](CCCCN)C(N)=O)[C@@H](C)CC)[C@@H](C)O)C(C)C", "note": "[SEQ ID NO: 184] (Ac-IHVTFPADLWDWINK-NH2)", "IC50": "< 10"}
{"smiles": "CC[C@H](C)[C@H](NC(C)=O)C(=O)N[C@@H](Cc1c[nH]cn1)C(=O)N[C@H](C(=O)N[C@H](C(=O)N[C@@H](Cc1ccc(O)cc1)C(=O)N1CCC[C@H]1C(=O)N[C@@H](C)C(=O)N[C@@H](CC(=O)O)C(=O)N[C@@H](CC(C)C)C(=O)N[C@@H](Cc1c[nH]c2ccccc12)C(=O)N[C@@H](CC(=O)O)C(=O)N[C@@H](Cc1c[nH]c2ccccc12)C(=O)N[C@H](C(=O)N[C@@H](CC(N)=O)C(=O)N[C@@H](CCCCN)C(N)=O)[C@@H](C)CC)[C@@H](C)O)C(C)C", "note": "[SEQ ID NO: 185] (Ac-IHVTYPADLWDWINK-NH2)", "IC50": "< 10"}
{"smiles": "CC[C@H](C)[C@H](NC(C)=O)C(=O)N[C@@H](Cc1c[nH]cn1)C(=O)N[C@H](C(=O)N[C@H](C(=O)N[C@H](C(=O)N[C@@H](C)C(=O)N[C@@H](C)C(=O)N[C@@H](CC(=O)O)C(=O)N[C@@H](CC(C)C)C(=O)N[C@@H](Cc1c[nH]c2ccccc12)C(=O)N[C@@H](CC(=O)O)C(=O)N[C@@H](Cc1c[nH]c2ccccc12)C(=O)N[C@H](C(=O)N[C@@H](CC(N)=O)C(=O)N[C@@H](CCCCN)C(N)=O)[C@@H](C)CC)[C@@H](C)CC)[C@@H](C)O)C(C)C", "note": "[SEQ ID NO: 186] (Ac-IHVTIAADLWDWINK-NH2)", "IC50": "< 10"}
{"smiles": "CC[C@H](C)[C@H](NC(C)=O)C(=O)N[C@@H](Cc1c[nH]cn1)C(=O)N[C@H](C(=O)N[C@H](C(=O)N[C@H](C(=O)NCC(=O)N[C@@H](C)C(=O)N[C@@H](CC(=O)O)C(=O)N[C@@H](CC(C)C)C(=O)N[C@@H](Cc1c[nH]c2ccccc12)C(=O)N[C@@H](CC(=O)O)C(=O)N[C@@H](Cc1c[nH]c2ccccc12)C(=O)N[C@H](C(=O)N[C@@H](CC(N)=O)C(=O)N[C@@H](CCCCN)C(N)=O)[C@@H](C)CC)[C@@H](C)CC)[C@@H](C)O)C(C)C", "note": "[SEQ ID NO: 187] (Ac-IHVTIGADLWDWINK-NH2)", "IC50": "< 10"}
{"smiles": "CC[C@H](C)[C@H](NC(C)=O)C(=O)N[C@@H](Cc1c[nH]cn1)C(=O)N[C@H](C(=O)N[C@H](C(=O)N[C@H](C(=O)N[C@@H](CC(C)C)C(=O)N[C@@H](C)C(=O)N[C@@H](CC(=O)O)C(=O)N[C@@H](CC(C)C)C(=O)N[C@@H](Cc1c[nH]c2ccccc12)C(=O)N[C@@H](CC(=O)O)C(=O)N[C@@H](Cc1c[nH]c2ccccc12)C(=O)N[C@H](C(=O)N[C@@H](CC(N)=O)C(=O)N[C@@H](CCCCN)C(N)=O)[C@@H](C)CC)[C@@H](C)CC)[C@@H](C)O)C(C)C", "note": "[SEQ ID NO: 188] (Ac-IHVTILADLWDWINK-NH2)", "IC50": "< 10"}
{"smiles": "CC[C@H](C)[C@H](NC(C)=O)C(=O)N[C@@H](Cc1c[nH]cn1)C(=O)N[C@H](C(=O)N[C@H](C(=O)N[C@H](C(=O)N[C@H](C(=O)N[C@@H](C)C(=O)N[C@@H](CC(=O)O)C(=O)N[C@@H](CC(C)C)C(=O)N[C@@H](Cc1c[nH]c2ccccc12)C(=O)N[C@@H](CC(=O)O)C(=O)N[C@@H](Cc1c[nH]c2ccccc12)C(=O)N[C@H](C(=O)N[C@@H](CC(N)=O)C(=O)N[C@@H](CCCCN)C(N)=O)[C@@H](C)CC)C(C)C)[C@@H](C)CC)[C@@H](C)O)C(C)C", "note": "[SEQ ID NO: 189] (Ac-IHVTIVADLWDWINK-NH2)", "IC50": "< 10"}
{"smiles": "CC[C@H](C)[C@H](NC(C)=O)C(=O)N[C@@H](Cc1c[nH]cn1)C(=O)N[C@H](C(=O)N[C@H](C(=O)N[C@H](C(=O)N[C@H](C(=O)N[C@@H](C)C(=O)N[C@@H](CC(=O)O)C(=O)N[C@@H](CC(C)C)C(=O)N[C@@H](Cc1c[nH]c2ccccc12)C(=O)N[C@@H](CC(=O)O)C(=O)N[C@@H](Cc1c[nH]c2ccccc12)C(=O)N[C@H](C(=O)N[C@@H](CC(N)=O)C(=O)N[C@@H](CCCCN)C(N)=O)[C@@H](C)CC)[C@@H](C)CC)[C@@H](C)CC)[C@@H](C)O)C(C)C", "note": "[SEQ ID NO: 190] (Ac-IHVTIIADLWDWINK-NH2)", "IC50": "< 10"}
{"smiles": "CC[C@H](C)[C@H](NC(C)=O)C(=O)N[C@@H](Cc1c[nH]cn1)C(=O)N[C@H](C(=O)N[C@H](C(=O)N[C@H](C(=O)N[C@@H](CC(N)=O)C(=O)N[C@@H](C)C(=O)N[C@@H](CC(=O)O)C(=O)N[C@@H](CC(C)C)C(=O)N[C@@H](Cc1c[nH]c2ccccc12)C(=O)N[C@@H](CC(=O)O)C(=O)N[C@@H](Cc1c[nH]c2ccccc12)C(=O)N[C@H](C(=O)N[C@@H](CC(N)=O)C(=O)N[C@@H](CCCCN)C(N)=O)[C@@H](C)CC)[C@@H](C)CC)[C@@H](C)O)C(C)C", "note": "[SEQ ID NO: 191] (Ac-IHVTINADLWDWINK-NH2)", "IC50": "< 10"}
{"smiles": "CC[C@H](C)[C@H](NC(C)=O)C(=O)N[C@@H](Cc1c[nH]cn1)C(=O)N[C@H](C(=O)N[C@H](C(=O)N[C@H](C(=O)N1CCC[C@H]1C(=O)NCC(=O)N[C@@H](CC(=O)O)C(=O)N[C@@H](CC(C)C)C(=O)N[C@@H](Cc1c[nH]c2ccccc12)C(=O)N[C@@H](CC(=O)O)C(=O)N[C@@H](Cc1c[nH]c2ccccc12)C(=O)N[C@H](C(=O)N[C@@H](CC(N)=O)C(=O)N[C@@H](CCCCN)C(N)=O)[C@@H](C)CC)[C@@H](C)CC)[C@@H](C)O)C(C)C", "note": "[SEQ ID NO: 192] (Ac-IHVTIPGDLWDWINK-NH2)", "IC50": "< 10"}
{"smiles": "CC[C@H](C)[C@H](NC(C)=O)C(=O)N[C@@H](Cc1c[nH]cn1)C(=O)N[C@H](C(=O)N[C@H](C(=O)N[C@H](C(=O)N1CCC[C@H]1C(=O)N[C@@H](CC(C)C)C(=O)N[C@@H](CC(=O)O)C(=O)N[C@@H](CC(C)C)C(=O)N[C@@H](Cc1c[nH]c2ccccc12)C(=O)N[C@@H](CC(=O)O)C(=O)N[C@@H](Cc1c[nH]c2ccccc12)C(=O)N[C@H](C(=O)N[C@@H](CC(N)=O)C(=O)N[C@@H](CCCCN)C(N)=O)[C@@H](C)CC)[C@@H](C)CC)[C@@H](C)O)C(C)C", "note": "[SEQ ID NO: 193] (Ac-IHVTIPLDLWDWINK-NH2)", "IC50": "< 10"}
{"smiles": "CC[C@H](C)[C@H](NC(C)=O)C(=O)N[C@@H](Cc1c[nH]cn1)C(=O)N[C@H](C(=O)N[C@H](C(=O)N[C@H](C(=O)N1CCC[C@H]1C(=O)N1CCC[C@H]1C(=O)N[C@@H](CC(=O)O)C(=O)N[C@@H](CC(C)C)C(=O)N[C@@H](Cc1c[nH]c2ccccc12)C(=O)N[C@@H](CC(=O)O)C(=O)N[C@@H](Cc1c[nH]c2ccccc12)C(=O)N[C@H](C(=O)N[C@@H](CC(N)=O)C(=O)N[C@@H](CCCCN)C(N)=O)[C@@H](C)CC)[C@@H](C)CC)[C@@H](C)O)C(C)C", "note": "[SEQ ID NO: 194] (Ac-IHVTIPPDLWDWINK-NH2)", "IC50": "< 10"}
{"smiles": "CC[C@H](C)[C@H](NC(C)=O)C(=O)N[C@@H](Cc1c[nH]cn1)C(=O)N[C@H](C(=O)N[C@H](C(=O)N[C@H](C(=O)N1CCC[C@H]1C(=O)N[C@H](C(=O)N[C@@H](CC(=O)O)C(=O)N[C@@H](CC(C)C)C(=O)N[C@@H](Cc1c[nH]c2ccccc12)C(=O)N[C@@H](CC(=O)O)C(=O)N[C@@H](Cc1c[nH]c2ccccc12)C(=O)N[C@H](C(=O)N[C@@H](CC(N)=O)C(=O)N[C@@H](CCCCN)C(N)=O)[C@@H](C)CC)C(C)C)[C@@H](C)CC)[C@@H](C)O)C(C)C", "note": "[SEQ ID NO: 195] (Ac-IHVTIPVDLWDWINK-NH2)", "IC50": "< 10"}
{"smiles": "CC[C@H](C)[C@H](NC(C)=O)C(=O)N[C@@H](Cc1c[nH]cn1)C(=O)N[C@H](C(=O)N[C@H](C(=O)N[C@H](C(=O)N1CCC[C@H]1C(=O)N[C@H](C(=O)N[C@@H](CC(=O)O)C(=O)N[C@@H](CC(C)C)C(=O)N[C@@H](Cc1c[nH]c2ccccc12)C(=O)N[C@@H](CC(=O)O)C(=O)N[C@@H](Cc1c[nH]c2ccccc12)C(=O)N[C@H](C(=O)N[C@@H](CC(N)=O)C(=O)N[C@@H](CCCCN)C(N)=O)[C@@H](C)CC)[C@@H](C)CC)[C@@H](C)CC)[C@@H](C)O)C(C)C", "note": "[SEQ ID NO: 196] (Ac-IHVTIPIDLWDWINK-NH2)", "IC50": "< 10"}
{"smiles": "CC[C@H](C)[C@H](NC(C)=O)C(=O)N[C@@H](Cc1c[nH]cn1)C(=O)N[C@H](C(=O)N[C@H](C(=O)N[C@H](C(=O)N1CCC[C@H]1C(=O)N[C@@H](CC(N)=O)C(=O)N[C@@H](CC(=O)O)C(=O)N[C@@H](CC(C)C)C(=O)N[C@@H](Cc1c[nH]c2ccccc12)C(=O)N[C@@H](CC(=O)O)C(=O)N[C@@H](Cc1c[nH]c2ccccc12)C(=O)N[C@H](C(=O)N[C@@H](CC(N)=O)C(=O)N[C@@H](CCCCN)C(N)=O)[C@@H](C)CC)[C@@H](C)CC)[C@@H](C)O)C(C)C", "note": "[SEQ ID NO: 197] (Ac-IHVTIPNDLWDWINK-NH2)", "IC50": "< 10"}
{"smiles": "CC[C@H](C)[C@H](NC(C)=O)C(=O)N[C@@H](Cc1c[nH]cn1)C(=O)N[C@H](C(=O)N[C@H](C(=O)N[C@H](C(=O)N1CCC[C@H]1C(=O)N[C@@H](CCC(N)=O)C(=O)N[C@@H](CC(=O)O)C(=O)N[C@@H](CC(C)C)C(=O)N[C@@H](Cc1c[nH]c2ccccc12)C(=O)N[C@@H](CC(=O)O)C(=O)N[C@@H](Cc1c[nH]c2ccccc12)C(=O)N[C@H](C(=O)N[C@@H](CC(N)=O)C(=O)N[C@@H](CCCCN)C(N)=O)[C@@H](C)CC)[C@@H](C)CC)[C@@H](C)O)C(C)C", "note": "[SEQ ID NO: 198] (Ac-IHVTIPQDLWDWINK-NH2)", "IC50": "< 10"}
{"smiles": "CC[C@H](C)[C@H](NC(C)=O)C(=O)N[C@@H](Cc1c[nH]cn1)C(=O)N[C@H](C(=O)N[C@H](C(=O)N[C@H](C(=O)N1CCC[C@H]1C(=O)N[C@@H](C)C(=O)N[C@@H](CCC(N)=O)C(=O)N[C@@H](CC(C)C)C(=O)N[C@@H](Cc1c[nH]c2ccccc12)C(=O)N[C@@H](CC(=O)O)C(=O)N[C@@H](Cc1c[nH]c2ccccc12)C(=O)N[C@H](C(=O)N[C@@H](CC(N)=O)C(=O)N[C@@H](CCCCN)C(N)=O)[C@@H](C)CC)[C@@H](C)CC)[C@@H](C)O)C(C)C", "note": "[SEQ ID NO: 199] (Ac-IHVTIPAQLWDWINK-NH2)", "IC50": "< 10"}
